Key:
501mel = test: MTT cytotoxicity assay; type: cell-based, Human; details: for IC50: Homo sapiens, 501mel, 72 h treatment, MTT
Description: (§1) Human cell lines were used throughout this program. SK-MEL-19 (melanoma BRAF^V600E, NRAS^WT), SK-MEL-28 (melanoma BRAF^V600E, NRAS^WT), SK-MEL-147 (melanoma BRAF^WT, NRAS^Q61R), MRC-5 (fibroblasts), and primary fibroblast (FDH) were kindly provided by Professor Glaucia Santelli (University of São Paulo, Brazil). MCF7 (breast adenocarcinoma, ATCC HTB-22), and HCT-116 (colorectal carcinoma, ATCC 247) cells were obtained from American Type Culture Collection (ATCC) and deposited in the Cell Bank of Rio de Janeiro, Brazil. WM293A (metastatic melanoma BRAF^V600D, NRAS^WT), 501mel (metastatic melanoma BRAF^V600E; NRAS^G12D), and MM200 (melanoma BRAF^V600E, NRAS^WT) were kindly provided by Professor Sharon Prince, University of Cape Town, South Africa. All human melanoma and breast cell lines were cultivated with Dulbecco’s Modified Eagle Medium: Nutrient Mixture F-12 (Thermo Fisher Scientific, San Jose, CA, USA). MM200 and HCT-116 were maintained with Roswell Park Memorial Institute (RPMI) medium (Thermo Fisher Scientific, San Jose, CA, USA). Unless stated otherwise, media was supplemented with 10% fetal bovine serum (FBS) and 1% penicillin-streptomycin (Thermo Fisher Scientific, San Jose, CA, USA). Cells were incubated with 5% CO2 at 37 °C. When required, cells were detached from flask using trypsin-EDTA 0.05% (Thermo Fisher Scientific, San Jose, CA, USA).
(§2) Cytotoxic activity was evaluated by the transformation of 3-(4,5-dimethylthiazol-2-yl)-2,5-diphenyltetrazolium bromide (MTT; Thermo Fisher Scientific, San Jose, CA, USA) into formazan by viable cells. Cells were plated in a 96-well plate (1 × 10^4 cells/well) and, 24 h later, exposed to serial dilutions of the test compounds (from 0.00032 to 5.0 µM) for 24, 48, and 72 h. For each analysis, negative controls received 0.5% DMSO and positive control was delivered by doxorubicin (DOX; 0.05 to 10.0 µM). At the end of the incubation periods, the medium was replaced with fresh medium containing 0.5 mg/mL of MTT and supernatant was removed 3 h later. The plates were dried at 50 °C for 30 min and formazan was solubilized in DMSO (150 µL/well) for the absorbance measure at 570 nm on a plate reader (Thermo Fisher Scientific, San Jose, CA, USA). IC50 values (half-maximal inhibitory concentration) along with 95% CI (confidence intervals) were calculated by non-linear regression using GraphPad Prism 8.0 software (GraphPad Software, Inc., San Diego, CA, USA).

FDH = test: MTT cytotoxicity assay; type: cell-based, Human; details: Homo sapiens, Fibroblast, 72 h, FDH primary fibroblasts, 72 h treatment
Description: as §1, §2

HCT-116 = test: MTT cytotoxicity assay; type: cell-based, Human; details: for IC50: Homo sapiens, HCT-116, 72 h treatment, MTT
Description: as §1, §2

MCF7 = test: MTT cytotoxicity assay; type: cell-based, Human; details: for IC50: Homo sapiens, MCF7, 72 h treatment, MTT
Description: as §1, §2

MM200 = test: MTT cytotoxicity assay; type: cell-based, Human; details: for IC50: Homo sapiens, MM200, 72 h treatment, MTT
Description: as §1, §2

SK-MEL-147 = test: MTT cytotoxicity assay; type: cell-based, Human; details: for IC50: Homo sapiens
Description: as §1, §2

SK-MEL-19 = test: MTT cytotoxicity assay; type: cell-based, Human; details: for IC50: Homo sapiens, SK-MEL19, SK-MEL-19, 72 h treatment, MTT
Description: as §1, §2

SK-MEL-28 = test: MTT cytotoxicity assay; type: cell-based, Human; details: for IC50: Homo sapiens
Description: as §1, §2

WM293A = test: MTT cytotoxicity assay; type: cell-based, Human; details: for IC50: Homo sapiens, WM293A, 72 h treatment, MTT
Description: as §1, §2

melanoma cells = test: MTT cytotoxicity assay, melanoma panel; type: cell-based, Human; details: SK-Mel cells versus non-tumor cell lines
Description: as §1, §2

MRC-5 = test: MTT cytotoxicity assay; details: Homo sapiens, MRC5, 72 h
[1] = HCT-116 versus FDH, 72-h IC50 ratio
[2] = HCT-116 versus MRC-5, 72-h IC50 ratio
[3] = MCF7 versus FDH, 72-h IC50 ratio
[4] = MCF7 versus MRC-5, 72-h IC50 ratio
[5] = MM200 versus FDH, 72-h IC50 ratio
[6] = MM200 versus MRC-5, 72-h IC50 ratio
[7] = SK-MEL-147, 72 h, SK-MEL-147, 72 h treatment, MTT
[8] = SK-MEL-147 versus FDH, 72-h IC50 ratio
[9] = SK-MEL-147 versus MRC-5, 72-h IC50 ratio
[10] = SK-MEL-19 versus FDH, 72-h IC50 ratio
[11] = SK-MEL-19 versus MRC-5, 72-h IC50 ratio
[12] = SK-MEL-28, 72 h, SK-MEL-28, 72 h treatment, MTT
[13] = SK-MEL-28 versus FDH, 72-h IC50 ratio
[14] = SK-MEL-28 versus MRC-5, 72-h IC50 ratio
[15] = WM293A versus FDH, 72-h IC50 ratio
[16] = WM293A versus MRC-5, 72-h IC50 ratio
[17] = MRC-5 non-tumor fibroblasts, 72 h treatment, MTT
[18] = 501mel versus FDH, 72-h IC50 ratio
[19] = 501mel versus MRC-5, 72-h IC50 ratio
[20] = SK-MEL-147, SK-MEL-147, 24h treatment, 1h pre-treated with 30 nM bafilomycin A1
[21] = SK-MEL-147, SK-MEL-147, 24h treatment, 1h pre-treated with 20 µM Z-VAD-FMK
[22] = SK-MEL-147, SK-MEL-147, 24h treatment, no pre-treatment (Table S4)
[23] = SK-MEL-28, SK-MEL-28, 24h treatment, 1h pre-treated with 30 nM bafilomycin A1
[24] = SK-MEL-28, SK-MEL-28, 24h treatment, 1h pre-treated with 20 µM Z-VAD-FMK
[25] = SK-MEL-28, SK-MEL-28, 24h treatment, no pre-treatment (Table S4)

Compound	IC50 (501mel) [µM]	IC50 (FDH) [µM]	Selectivity Index (SI) (HCT-116; [1])	Selectivity Index (SI) (HCT-116; [2])	IC50 (HCT-116) [µM]	IC50 (MCF7) [µM]	Selectivity Index (SI) (MCF7; [3])	Selectivity Index (SI) (MCF7; [4])	Selectivity Index (SI) (MM200; [5])	Selectivity Index (SI) (MM200; [6])	IC50 (SK-MEL-147; [7]) [µM]	Selectivity Index (SI) (SK-MEL-147; [8])	Selectivity Index (SI) (SK-MEL-147; [9])	IC50 (SK-MEL-19) [µM]	Selectivity Index (SI) (SK-MEL-19; [10])	Selectivity Index (SI) (SK-MEL-19; [11])	IC50 (SK-MEL-28; [12]) [µM]	Selectivity Index (SI) (SK-MEL-28; [13])	Selectivity Index (SI) (SK-MEL-28; [14])	IC50 (WM293A) [µM]	other results
NCCCCCCNC(=O)CCc1ccc2c(=O)c3sc4c(=O)c5ccccc5c(=O)c4c3c(=O)c2c1 [SQ4]	> 5	1.01	1.0	2.4	1.02	1	1.0	2.5	0.9	2.1	0.4	2.5	6.1	0.32	3.2	7.7	0.19	5.3	12.9	1.75	IC50 (MM200; 72 h): 1.16 µM; Selectivity Index (SI) (WM293A; [15]): 0.6; Selectivity Index (SI) (WM293A; [16]): 1.4; selectivity indices to SK-Mel cells in relation to non-tumor cell lines (melanoma cells): ≥ twofold; IC50 (MRC-5; [17]): 2.45 µM
N[C@H]1CCN(C(=O)CCc2ccc3c(=O)c4sc5c(=O)c6ccccc6c(=O)c5c4c(=O)c3c2)C1 [SQ5]	1.71	0.93	4.2	2.5	0.22	0.49	1.9	1.1	3.1	1.9	0.07	13.3	8.0	0.04	23.3	14.0	0.15	6.2	3.7	1.65	Selectivity Index (SI) (501mel; [18]): 0.5; Selectivity Index (SI) (501mel; [19]): 0.3; IC50 (MM200; 72 h): 0.3 µM; Selectivity Index (SI) (WM293A; [15]): 0.6; Selectivity Index (SI) (WM293A; [16]): 0.3; selectivity indices to SK-Mel cells in relation to non-tumor cell lines (melanoma cells): ≥ twofold; IC50 (MRC-5; [17]): 0.56 µM
CO[C@H]1C[C@@H]2CC[C@@H](C)[C@@](O)(O2)C(=O)C(=O)N2CCCC[C@H]2C(=O)O[C@H]([C@H](C)C[C@@H]2CC[C@@H](O)[C@H](OC)C2)CC(=O)[C@H](C)/C=C(\C)[C@@H](O)[C@@H](OC)C(=O)[C@H](C)C[C@H](C)/C=C/C=C/C=C/1C [RAPAMYCIN, rapamycin, reference compound]	–	–	–	–	–	–	–	–	–	–	–	–	–	–	–	–	–	–	–	–	IC50 (SK-MEL-147; [20]): 39.1 µM; IC50 (SK-MEL-147; [21]): 22.8 µM; IC50 (SK-MEL-147; [22]): 17.5 µM; IC50 (SK-MEL-28; [23]): 15.7 µM; IC50 (SK-MEL-28; [24]): 31.8 µM; IC50 (SK-MEL-28; [25]): 17.8 µM
COc1cccc2c1C(=O)c1c(O)c3c(c(O)c1C2=O)C[C@@](O)(C(=O)CO)C[C@@H]3O[C@H]1C[C@H](N)[C@H](O)[C@H](C)O1 [DOX, doxorubicin, reference compound]	0.26	0.78	5.2	0.3	0.15	0.56	1.4	0.1	7.8	0.5	0.18	4.3	0.3	0.39	2.0	0.1	1.22	0.6	0.04	0.06	Selectivity Index (SI) (501mel; [18]): 3.0; Selectivity Index (SI) (501mel; [19]): 0.2; IC50 (MM200): 0.1 µM; IC50 (SK-MEL-147; SK-MEL-147, 24 h, SK-MEL-147, 24h treatment, MTT): 0.79 µM; IC50 (SK-MEL-147; SK-MEL-147, 48 h, SK-MEL-147, 48h treatment, MTT): 0.48 µM; IC50 (SK-MEL-147; [20]): 2.48 µM; IC50 (SK-MEL-147; [21]): 1.88 µM; IC50 (SK-MEL-147; [22]): 0.8 µM; IC50 (SK-MEL-28; SK-MEL-28, 24 h, SK-MEL-28, 24h treatment, MTT): 1.39 µM; IC50 (SK-MEL-28; SK-MEL-28, 48 h, SK-MEL-28, 48h treatment, MTT): 2.11 µM; IC50 (SK-MEL-28; [23]): 0.33 µM; IC50 (SK-MEL-28; [24]): 1.15 µM; IC50 (SK-MEL-28; [25]): 0.59 µM; Selectivity Index (SI) (WM293A; [15]): 13.0; Selectivity Index (SI) (WM293A; [16]): 0.9; IC50 (MRC-5): 0.05 µM
O=C(O)CCc1ccc2c(=O)c3sc4c(=O)c5ccccc5c(=O)c4c3c(=O)c2c1 [SQ3]	0.2	3.5	3.4	1.4	1.02	1.9	1.8	0.8	2.4	1.0	0.26	13.5	5.5	0.11	31.8	13.0	0.24	14.6	6.0	1.5	Selectivity Index (SI) (501mel; [18]): 17.5; Selectivity Index (SI) (501mel; [19]): 7.2; IC50 (MM200; 72 h): 1.43 µM; Selectivity Index (SI) (WM293A; [15]): 2.3; Selectivity Index (SI) (WM293A; [16]): 1.0; selectivity indices to SK-Mel cells in relation to non-tumor cell lines (melanoma cells): ≥ twofold; IC50 (MRC-5; [17]): 1.43 µM

From publication PMC8658889, “Seriniquinones as Therapeutic Leads for Treatment of BRAF and NRAS Mutant Melanomas” (Molecules, 2021)
